ChEMBL document CHEMBL3885861, “Open TG-GATES”

Species on record: Rattus norvegicus
Test: Open TG-GATES - Regimen: Daily Repeat
Type: toxicity, organism-based, Sprague-Dawley
Set-up: regimen Daily Repeat, gender Male, age 6 weeks
Conditions: in vivo, po, 1000 mg/kg, route gavage, dose level High; for APTT / Bas / Eos / Fbg / Hb / Ht / Lym / MCH / MCHC / MCV / Mono / Neu / PT / Plat / RBC / Ret / WBC: tissue Blood; for KIDNEY_L / KIDNEY_R / KIDNEY_TOTAL: tissue Kidney; for LIVER: tissue Liver; for A/G / ALP / ALT / AST / BUN / CRE / Ca / Cl / DBIL / GLC / IP / K / LDH / Na / PL / RALB / TBIL / TC / TG / TP / gamma-GTP: tissue Plasma

## C[C@H]1O[C@H](O[C@H]2[C@H](O)[C@@H](O)[C@@H](O[C@H]3[C@H](O)[C@@H](O)C(O)O[C@@H]3CO)O[C@@H]2CO)[C@H](O)[C@@H](O)[C@@H]1N[C@H]1C=C(CO)[C@@H](O)[C@H](O)[C@H]1O (some centres not stated) [ACARBOSE]
72 h, time 3 day
  TERMINAL_BW: 230.8 g
  APTT: 17.8 s
  Bas: 0%
  Eos: 1%
  Fbg: 308.6 mg/dL
  Hb: 13.5 g/dL
  Ht: 40.6%
  Lym: 75.8%
  MCH: 21.2 pg
  MCHC: 33.3%
  MCV: 63.7 fL
  Mono: 2.8%
  Neu: 19.6%
  PT: 13 s
  Plat: 118.2 x10_4/uL
  RBC: 638.2 x10_4/ul
  Ret: 6.9%
  WBC: 90.6 x10_2/uL
  KIDNEY_L: 1 g
  KIDNEY_R: 1 g
  KIDNEY_TOTAL: 2 g
  LIVER: 10.9 g
  A/G: 0.9
  ALP: 1494.4 IU/L
  ALT: 46.8 IU/L
  AST: 74 IU/L
  BUN: 13.4 mg/dL
  CRE: 0.2 mg/dL
  Ca: 10.7 mg/dL
  Cl: 104.2 meq/L
  DBIL: 0.012 mg/dL
  GLC: 169.8 mg/dL
  IP: 7.7 mg/dL
  K: 3.9 meq/L
  LDH: 95.2 IU/L
  Na: 140 meq/L
  PL: 140 mg/dL
  RALB: 2.6 g/dL
  TBIL: 0.062 mg/dL
  TC: 75.2 mg/dL
  TG: 87 mg/dL
  TP: 5.5 g/dL
  gamma-GTP: 1 IU/L
[…], time 7 day
  TERMINAL_BW: 275.6 g
  APTT: 16.9 s
  Bas: 0%
  Eos: 1%
  Fbg: 302.6 mg/dL
  Hb: 13.6 g/dL
  Ht: 40.4%
  Lym: 79.8%
  MCH: 20.9 pg
  MCHC: 33.7%
  MCV: 62.2 fL
  Mono: 2.2%
  Neu: 16.2%
  PT: 13.1 s
  Plat: 119.8 x10_4/uL
  RBC: 649.4 x10_4/ul
  Ret: 6.1%
  WBC: 120 x10_2/uL
  KIDNEY_L: 1.1 g
  KIDNEY_R: 1.1 g
  KIDNEY_TOTAL: 2.2 g
  LIVER: 13.9 g
  A/G: 0.9
  ALP: 1346.8 IU/L
  ALT: 41.2 IU/L
  AST: 66 IU/L
  BUN: 16.6 mg/dL
  CRE: 0.2 mg/dL
  Ca: 10.9 mg/dL
  Cl: 103.2 meq/L
  DBIL: 0.012 mg/dL
  GLC: 182.4 mg/dL
  IP: 7.3 mg/dL
  K: 3.9 meq/L
  LDH: 88.4 IU/L
  Na: 141.4 meq/L
  PL: 140.2 mg/dL
  RALB: 2.6 g/dL
  TBIL: 0.048 mg/dL
  TC: 66.4 mg/dL
  TG: 134.8 mg/dL
  TP: 5.7 g/dL
  gamma-GTP: 1 IU/L
[…], time 14 day
  TERMINAL_BW: 312 g
  APTT: 21 s
  Bas: 0%
  Eos: 1%
  Fbg: 297 mg/dL
  Hb: 14.7 g/dL
  Ht: 43.8%
  Lym: 79%
  MCH: 20.6 pg
  MCHC: 33.5%
  MCV: 61.4 fL
  Mono: 1.8%
  Neu: 17.4%
  PT: 13.3 s
  Plat: 135 x10_4/uL
  RBC: 713.4 x10_4/ul
  Ret: 4.4%
  WBC: 106.9 x10_2/uL
  KIDNEY_L: 1.2 g
  KIDNEY_R: 1.2 g
  KIDNEY_TOTAL: 2.4 g
  LIVER: 13.4 g
  A/G: 0.8
  ALP: 1516 IU/L
  ALT: 40 IU/L
  AST: 69.8 IU/L
  BUN: 17.4 mg/dL
  CRE: 0.3 mg/dL
  Ca: 10.7 mg/dL
  Cl: 105.2 meq/L
  DBIL: 0.006 mg/dL
  GLC: 184 mg/dL
  IP: 7 mg/dL
  K: 4.1 meq/L
  LDH: 88.8 IU/L
  Na: 142.2 meq/L
  PL: 138.2 mg/dL
  RALB: 2.7 g/dL
  TBIL: 0.046 mg/dL
  TC: 69.8 mg/dL
  TG: 89 mg/dL
  TP: 5.8 g/dL
  gamma-GTP: 1 IU/L
[…], time 28 day
  TERMINAL_BW: 399.3 g
  APTT: 17.7 s
  Bas: 0.4%
  Eos: 1.2%
  Fbg: 283 mg/dL
  Hb: 16.2 g/dL
  Ht: 47.2%
  Lym: 83.6%
  MCH: 19.6 pg
  MCHC: 34.4%
  MCV: 57 fL
  Mono: 2%
  Neu: 12.6%
  PT: 13.3 s
  Plat: 102.8 x10_4/uL
  RBC: 829 x10_4/ul
  Ret: 2.2%
  WBC: 110.1 x10_2/uL
  KIDNEY_L: 1.4 g
  KIDNEY_R: 1.3 g
  KIDNEY_TOTAL: 2.7 g
  LIVER: 16.6 g
  A/G: 0.8
  ALP: 1153.4 IU/L
  ALT: 35.4 IU/L
  AST: 63.6 IU/L
  BUN: 18.4 mg/dL
  CRE: 0.3 mg/dL
  Ca: 10.8 mg/dL
  Cl: 104.6 meq/L
  DBIL: 0.014 mg/dL
  GLC: 180.2 mg/dL
  IP: 6.5 mg/dL
  K: 4 meq/L
  LDH: 72.6 IU/L
  Na: 142 meq/L
  PL: 151.8 mg/dL
  RALB: 2.8 g/dL
  TBIL: 0.058 mg/dL
  TC: 73.4 mg/dL
  TG: 166.2 mg/dL
  TP: 6.2 g/dL
  gamma-GTP: 1.2 IU/L
